# Assay results reported in US20150284331A1 (priority 2012, published 2015).
# Where a chain is given by its changes, count along the chain named. Where two headings read alike, the source gives them in different places.
# How the values were obtained:
# [1] = target: T1, acetylcholinesterase (Rattus norvegicus, UniProt P37136); test: biochemical; assay type: biochemical; conditions: rat cortex enzyme
# T1 construct: Acetylcholinesterase: rat cortex; from tissue; host or cells: rat cortex
# T1 sequence (P37136 32-614): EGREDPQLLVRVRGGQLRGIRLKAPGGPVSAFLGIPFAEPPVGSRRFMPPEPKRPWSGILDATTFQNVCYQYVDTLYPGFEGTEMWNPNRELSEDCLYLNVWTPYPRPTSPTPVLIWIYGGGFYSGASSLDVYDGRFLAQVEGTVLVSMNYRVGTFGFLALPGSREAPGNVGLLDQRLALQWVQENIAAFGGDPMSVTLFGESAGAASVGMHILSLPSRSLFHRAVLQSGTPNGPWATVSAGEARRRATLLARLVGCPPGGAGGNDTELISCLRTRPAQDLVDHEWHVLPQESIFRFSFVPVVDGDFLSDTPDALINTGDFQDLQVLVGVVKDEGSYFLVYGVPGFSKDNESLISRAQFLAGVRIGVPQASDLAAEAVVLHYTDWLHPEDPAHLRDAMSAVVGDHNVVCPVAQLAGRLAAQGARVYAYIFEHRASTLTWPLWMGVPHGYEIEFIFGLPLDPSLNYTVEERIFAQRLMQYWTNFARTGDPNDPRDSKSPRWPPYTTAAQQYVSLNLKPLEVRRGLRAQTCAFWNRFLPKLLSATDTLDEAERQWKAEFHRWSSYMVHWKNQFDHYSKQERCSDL
# Experimental: (§1) Sample processing: All samples were formulated as 10-2 mol/L solution by using 100% DMSO. 10-2 mol/L solution was used in microdetermination. 1 μL was taken to use in single tube experiment.
# (§2) Solvent control: 0.4% DMSO was used in microdetermination. The inhibition ratio of the sample was obtained wherein the effect of solvent was deducted.
# Acetylcholinesterase: rat cortex
# [2] = target: T2, cortex and hippocampus acetylcholinesterase of mice (Mus musculus, UniProt P21836); assay type: in vivo; conditions: for Acetylcholinesterase activity (%) cortex / Acetylcholinesterase activity (%) hippocampus: 1 h, % of solvent control, Mean ± SEM
# T2 construct: from tissue; host or cells: mouse cortex and hippocampus homogenate
# T2 sequence (P21836 32-614): T1 sequence (P37136 32-614) with I59V, T109A, S128A, T144A, S271A, D313E, A392T, V467T, Q478K, R499Q
# Experimental: 5% DMSO was added and shaken sufficiently to dissolve the samples. Then 1% cosolvent EL (polyoxyethylated castor oil) was added and water was used to make up the remaining volumn to obtain 10 mg/mL sample. The samples were diluted gradually to 0.3 mg/mL, 1 mg/mL and 3 mg/mL. […] The samples were administrated orally according to 0.1˜mL/10 g of volumn to weight ratio. An equal amount of 5% DMSO and 1% EL solution was administered orally to the solvent control group.
# (1) Acetylcholinesterase: mouse cortex and hippocampus. 1 h after orally administrated, the mice were decapitated. After the brains were taken out, the hippocampus and cortex were quickly stripped on the ice. To the cortex was added ice-cold 75 mM PBS, and homogenated to form 30× tissue homogenate and to the hippocampus was added ice-cold 75 mM PBS and homogenated to form 40× tissue homogenate. And finally 1/10 by volumn of OMPA was added and placed on the ice to be tested.
# (2) Test Method: To the samples were added a reaction system containing PBS, H2O, S-Ach and DTNB. Except for the blank tube, to the rest of the tubes were added an appropriate amount of enzyme. The reaction was carried out at room temperature for 20 minutes. SDS was added to each tube to quench the reaction. An appropriate amount of enzyme was added to the blank tube. Absorbance of each tube was determined by UV-visible spectrophotometer (OD440 nm).
# [3] = target: T3, butyrylcholinesterase (Rattus norvegicus, UniProt Q9JKC1); test: inhibition of butyrylcholinesterase (rat serum); assay type: biochemical; conditions: rat serum enzyme; final concentration 4×10−5 mol/L
# T3 construct: Butyrylcholinesterase: rat serum; from tissue; host or cells: rat serum
# T3 sequence (Q9JKC1 24-597): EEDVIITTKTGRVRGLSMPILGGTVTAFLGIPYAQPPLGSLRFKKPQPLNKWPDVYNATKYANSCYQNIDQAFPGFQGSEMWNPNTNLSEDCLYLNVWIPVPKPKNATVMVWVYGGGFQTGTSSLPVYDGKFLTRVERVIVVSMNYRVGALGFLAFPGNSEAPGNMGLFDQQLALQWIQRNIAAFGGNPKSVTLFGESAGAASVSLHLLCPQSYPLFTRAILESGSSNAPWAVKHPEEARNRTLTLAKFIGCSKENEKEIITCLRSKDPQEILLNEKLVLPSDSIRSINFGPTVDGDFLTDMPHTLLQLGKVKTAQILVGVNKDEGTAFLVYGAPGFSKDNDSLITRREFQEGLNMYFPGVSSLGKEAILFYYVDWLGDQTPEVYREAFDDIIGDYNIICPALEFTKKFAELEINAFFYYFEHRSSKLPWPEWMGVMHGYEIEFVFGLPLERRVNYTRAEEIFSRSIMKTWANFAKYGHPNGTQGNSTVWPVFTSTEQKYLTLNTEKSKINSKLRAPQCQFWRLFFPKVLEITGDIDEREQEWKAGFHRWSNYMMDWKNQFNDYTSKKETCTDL
# Experimental: as §1, §2
# Butyrylcholinesterase: rat serum
# [4] = test system: KM mice; test: acute toxicities of compounds on mice; assay type: in vivo; conditions: 100 mg/kg oral
# Experimental: Sample processing: When getting samples, they were undissolved. […] The samples were suspensions. Experimental animals: KM mice, 22-29 g, half male and half female.
# Experimental method: Mice were randomly divided into groups. 100 mg/kg of test compounds DC19 and DC20 were administered orally, respectively.
smiles,measurement,setting,value
"COc1cc2c(cc1OC)C(=O)C(CC1(F)CCN(Cc3ccccc3F)CC1)C2 (stereo not shown) [DC20, 2-((4-fluoro-1-(2-fluorobenzyl)piperidin-4-yl)methyl)-5,6-dimethoxy-2,3-dihydro-1H-inden-1-one]",acetylcholinesterase inhibitory activity inhibition ratio (%),[1]; final concentration 4×10−5 mol/L,82.04%
same,IC50,[1]; read-out: acetylcholinesterase inhibitory activity IC50 (nmol),0.86 nM
same,inhibition of cortex acetylcholinesterase compared with the solvent control group,[2]; 0.3 mg/kg oral,14.67%
same,inhibition of hippocampus acetylcholinesterase compared with the solvent control group,[2]; 0.3 mg/kg oral,15.47%
same,Acetylcholinesterase activity (%) cortex,[2]; 0.3 mg/kg oral,85.33%
same,Acetylcholinesterase activity (%) hippocampus,[2]; 0.3 mg/kg oral,84.53%
same,inhibition effects on mouse cortex and hippocampus AChE compared with Donepezil,[2]; 1 mg/kg of DC20 versus 10 mg/kg Donepezil,comparable to those of 10 mg/kg of positive control drug Donepezil
same,inhibition of cortex acetylcholinesterase compared with the solvent control group,[2]; 1 mg/kg oral,22.02%
same,inhibition of hippocampus acetylcholinesterase compared with the solvent control group,[2]; 1 mg/kg oral,19.76%
same,Acetylcholinesterase activity (%) cortex,[2]; 1 mg/kg oral,77.98%
same,Acetylcholinesterase activity (%) hippocampus,[2]; 1 mg/kg oral,80.24%
same,inhibition effects on mouse cortex and hippocampus acetylcholinesterase (in words),"[2]; 1 mg/kg, 3 mg/kg and 10 mg/kg oral",significant inhibition effects
same,inhibition of cortex acetylcholinesterase compared with the solvent control group,[2]; 3 mg/kg oral,42.95%
same,inhibition of hippocampus acetylcholinesterase compared with the solvent control group,[2]; 3 mg/kg oral,50.12%
same,Acetylcholinesterase activity (%) cortex,[2]; 3 mg/kg oral,57.05%
same,Acetylcholinesterase activity (%) hippocampus,[2]; 3 mg/kg oral,49.88%
same,inhibition of cortex acetylcholinesterase compared with the solvent control group,[2]; 10 mg/kg oral,66.02%
same,inhibition of hippocampus acetylcholinesterase compared with the solvent control group,[2]; 10 mg/kg oral,65.62%
same,Acetylcholinesterase activity (%) cortex,[2]; 10 mg/kg oral,33.98%
same,Acetylcholinesterase activity (%) hippocampus,[2]; 10 mg/kg oral,34.38%
same,overall activity compared with Donepezil,"[2]; mouse cortex and hippocampus AChE, oral",better than that of Donepezil
same,butyrylcholinesterase inhibitory activity inhibition ratio (%),[3],71.58%
same,response symptoms,[4]; female KM mouse,"8 min, myasthenia, lacrimal"
same,response symptoms,[4]; male KM mouse,"6 min, myasthenia, reduction in"
same,time of death after administration,[4]; male KM mouse,"secretion, immobility; 24 h,"
